From patent US20250353873A1, “COMPOUNDS AND METHODS FOR MODULATING APOE EXPRESSION” (Ionis Pharmaceuticals, Inc., priority 2024, published 2025)
Several values for one entry are separate records, joined by “and”; a condition that tells them apart may be missing. Equal entries are not always repeated. Strand notation (5' to 3'): a small letter for the sugar, then the base; units joined by * are phosphorothioate-linked, units joined directly phosphodiester-linked; [ ] holds rarer units or linkages, { } end groups; capitals alone tell only the bases. [ms] = mesyl phosphoramidate linkage; e = 2'-O-(2-methoxyethyl) (MOE); k = constrained ethyl (cEt); [5mC] = 5-methylcytosine; d = 2'-deoxy (DNA)

Legend:
[1] = tested on: human APOE RNA; experiment: Dose-dependent reduction of human APOE RNA in HepG2 cells, electroporation, 20,000 cells per well, average of GAPDH- and PPIA-normalized results (Example 4, Table 12); assay type: cell-based; conditions: HepG2, 20,000 cells per well; for IC50: approximately 24 hours
Experimental: HepG2 cells plated at a density of 20,000 cells per well were treated by electroporation with various concentrations of modified oligonucleotide as specified in the tables below. […] APOE RNA levels were measured using the human primer probe set RTS3073 (described herein above). APOE RNA levels were normalized to human GAPDH, and human PPIA. Human GAPDH was amplified using human primer probe set RTS104 (described herein above). Human PPIA was amplified using human primer probe set mk_cycloA_2nd (described herein above) The average of the GAPDH-normalized results and the PPIA-normalized results are presented in the table below as percent APOE RNA, relative to the amount of APOE RNA in untreated control cells (% UTC). The half maximal inhibitory concentration (IC50) of each modified oligonucleotide was calculated in GraphPad Prism 10 (GraphPad Software, San Diego, CA) and is also presented in the table below.

[2] = tested on: human APOE RNA; experiment: Dose-dependent inhibition of human APOE RNA in differentiated SH-SY5Y cells, free uptake, 5 days (Example 5); assay type: cell-based
How it was run: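 Differentiated SH-SY5Y cells (10,000/well) treated by free uptake with graded oligonucleotide concentrations for 5 days. APOE RNA quantified with primer probe set RTS3073, normalized to PPIA, expressed as % untreated control; IC50 calculated.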

[3] = tested on: human APOE RNA; experiment: Activity in APOE C57BL/6NTac-Apoeem7250 knock-in mice, single ICV bolus, 4 weeks (Example 10); assay type: in vivo; conditions: single ICV bolus 300 μg, 4 weeks post treatment, normalized to mouse Ppia
How it was run: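 Knock-in mice (2–4 per group) received one 300 μg ICV bolus of oligonucleotide or PBS. After four weeks, human APOE RNA in cortex and spinal cord measured by RT-qPCR (primer probe set RTS3073), normalized to mouse Ppia, expressed as % of PBS controls.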

[4] = tested on: human APOE RNA; experiment: Activity in APOE C57BL/6NTac-Apoeem7250 knock-in mice, single ICV bolus, 8 weeks (Example 11); assay type: in vivo; conditions: for APOE RNA (% control) Cortex / APOE RNA (% control) Spinal Cord: single ICV bolus 300 μg, 8 weeks post treatment, normalized to mouse Ppia
How it was run: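 Human APOE knock-in C57BL/6NTac mice given one ICV bolus of 300 μg oligonucleotide; PBS-dosed group as control. At 8 weeks, cortex and spinal cord RNA measured by qRT-PCR (human probe RTS3073), normalized to mouse Ppia, expressed as % of PBS control.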

[5] = tested on: human APOE RNA; experiment: Activity in APOE C57BL/6NTac-Apoeem7250 knock-in mice, single ICV bolus, 20 weeks (Example 13); assay type: in vivo; conditions: single ICV bolus 300 μg, 20 weeks post treatment, normalized to mouse Ppia
How it was run: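 Knock-in mice (n=4) given a single ICV bolus of 300 μg oligonucleotide, PBS as control. After 20 weeks, human APOE RNA in cortex and spinal cord measured by RT-qPCR, normalized to mouse Ppia, expressed as % of PBS-treated animals.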

Substance | APOE RNA (% UTC) ([1]; 5 nM) | APOE RNA (% UTC) ([1]; 13 nM) | APOE RNA (% UTC) ([1]; 33 nM) | APOE RNA (% UTC) ([1]; 82 nM) | APOE RNA (% UTC) ([1]; 205 nM) | APOE RNA (% UTC) ([1]; 512 nM) | APOE RNA (% UTC) ([1]; 1,280 nM) | APOE RNA (% UTC) ([1]; 3,200 nM) | APOE RNA (% UTC) ([1]; 8,000 nM) | APOE RNA (% UTC) ([1]; 20,000 nM) | IC50 [1] [nM] | APOE RNA (% UTC) ([2]; 5 nM, 5 days (Table 14)) | APOE RNA (% UTC) ([2]; 13 nM, 5 days (Table 14)) | APOE RNA (% UTC) ([2]; 33 nM, 5 days (Table 14)) | APOE RNA (% UTC) ([2]; 82 nM, 5 days (Table 14)) | APOE RNA (% UTC) ([2]; 205 nM, 5 days (Table 14)) | APOE RNA (% UTC) ([2]; 512 nM, 5 days (Table 14)) | APOE RNA (% UTC) ([2]; 1,280 nM, 5 days (Table 14)) | APOE RNA (% UTC) ([2]; 3,200 nM, 5 days (Table 14)) | APOE RNA (% UTC) ([2]; 8,000 nM, 5 days (Table 14)) | further results
1785598: modified oligonucleotide complementary to human APOE RNA (k[5mC]*kT*kT*dG[ms]dG[ms]dT[ms]dG[ms]dA[ms]dA[ms]dT*d[5mC]*dT*dT*dT*dA*dT[ms]kT*kA*dA[ms]kA; antisense) [compound 1785598] | 103 | 97 | 88 | 75 | 56 | 36 | 23 | 9 | 11 | 11 | 290 | 72 | 59 | 90 | 57 | 59 | 39 | 23 | 23 | 9 | APOE RNA (% UTC) ([2]; 20,000 nM, 5 days (Table 14)): 11 % UTC; IC50 ([2]; 5 days (Table 14)): 180 nM; APOE RNA (% control) Cortex [3]: 29 % control; APOE RNA (% control) Spinal Cord [3]: 40 % control; APOE RNA (% control) Cortex [4]: 23 % control; APOE RNA (% control) Spinal Cord [4]: 16 % control; APOE RNA (% control) Cortex [5]: 72 % control; APOE RNA (% control) Spinal Cord [5]: 30 % control
1785617: modified oligonucleotide complementary to human APOE RNA (k[5mC]*dT[ms]dT[ms]kG*dG[ms]kT*dG[ms]dA[ms]dA[ms]dT[ms]d[5mC]*dT*dT*dT*dA*dT*kT*kA*dA[ms]kA; antisense) [compound 1785617] | 95 | 93 | 82 | 68 | 55 | 32 | 23 | 16 | 20 | 6 | 260 | 118 | 116 | 84 | 71 | 59 | 56 | 29 | 21 | 22 | APOE RNA (% UTC) ([2]; 20,000 nM, 5 days (Table 14)): 10 % UTC; IC50 ([2]; 5 days (Table 14)): 520 nM; APOE RNA (% control) Cortex [3]: 39 % control; APOE RNA (% control) Spinal Cord [3]: 38 % control; APOE RNA (% control) Cortex [4]: 30 % control; APOE RNA (% control) Spinal Cord [4]: 213 % control; APOE RNA (% control) Cortex [5]: 61 % control; APOE RNA (% control) Spinal Cord [5]: 38 % control
Aes^mCeoTeoTesGesGksTdsGdzAdzAdzTds^mCdsTdsTdsTdsAdzTksTksAesAe (eA*e[5mC]eTeT*eG*kG*dT*dG[ms]dA[ms]dA[ms]dT*d[5mC]*dT*dT*dT*dA[ms]kT*kT*eA*eA) [Compound No. 1757576] | 94 | 88 | 83 | 77 | 61 | 40 | 29 | 22 | 11 | 6 | 370 | 68 | 51 | 44 | 35 | 32 | 32 | 27 | 23 | 17 | APOE RNA (% UTC) ([2]; 5 nM, 5 days (Table 13)): 75 % UTC; APOE RNA (% UTC) ([2]; 13 nM, 5 days (Table 13)): 71 % UTC; APOE RNA (% UTC) ([2]; 33 nM, 5 days (Table 13)): 45 % UTC; APOE RNA (% UTC) ([2]; 82 nM, 5 days (Table 13)): 42 % UTC; APOE RNA (% UTC) ([2]; 205 nM, 5 days (Table 13)): 43 % UTC; APOE RNA (% UTC) ([2]; 512 nM, 5 days (Table 13)): 31 % UTC; APOE RNA (% UTC) ([2]; 1,280 nM, 5 days (Table 13)): 29 % UTC; APOE RNA (% UTC) ([2]; 3,200 nM, 5 days (Table 13)): 27 % UTC; APOE RNA (% UTC) ([2]; 8,000 nM, 5 days (Table 13)): 12 % UTC; APOE RNA (% UTC) ([2]; 20,000 nM, 5 days (Table 13)): 18 % UTC; APOE RNA (% UTC) ([2]; 20,000 nM, 5 days (Table 14)): 6 % UTC; IC50 ([2]; 5 days (Table 13)): 70 nM; IC50 ([2]; 5 days (Table 14)): 20 nM; APOE RNA (% control) Cortex [3]: 29 % control; APOE RNA (% control) Spinal Cord [3]: 23 % control; reduction of human APOE RNA in the cortex ([4]; APOE knock-in mouse model, 8 weeks post administration, assay of Example 11): 79%; APOE RNA (% control) Cortex [4]: 29 % control and 21 % control; APOE RNA (% control) Spinal Cord [4]: 15 % control and 10 % control; APOE RNA (% control) Cortex [5]: 32 % control; APOE RNA (% control) Spinal Cord [5]: 31 % control
